Laboratory results published in patent publication KR20130087877A, “피부미백, 항산화 및 ppar 활성을 갖는 신규 화합물 및 이의 의학적 용도” (부산대학교 산학협력단, priority 2012, dated 2013).

Columns and labels:
[1] = tested on: mushroom-derived tyrosinase (버섯 유래 티로시나아제); test: Tyrosinase inhibition (dopachrome formation from L-tyrosine); format: biochemical; conditions: 1 mM L-tyrosine, pH 6.5, 25℃, 30 min, 492 nm; compared with positive control kojic acid; Figure 2
[2] = tested on: ROS generated in vascular endothelial cells (혈관내피세포(YPEN-1)); test: In vitro ROS scavenging activity, DCFDA assay in YPEN-1 vascular endothelial cells; format: cell-based, rat; conditions: YPEN-1 cells, SIN-1 50 μM pretreatment 1 h, compared with positive control Trolox, Figure 1
[3] = target: T1, PPARα (Homo sapiens, UniProt Q07869); test: PPAR analysis, PPARα (Fluormone Pan-PPAR Green competition, competitive activation rate); conditions: final sample concentration 100 μM; compared with positive control fenofibrate; Figure 3
T1 sequence (Q07869 239-466 limits assumed): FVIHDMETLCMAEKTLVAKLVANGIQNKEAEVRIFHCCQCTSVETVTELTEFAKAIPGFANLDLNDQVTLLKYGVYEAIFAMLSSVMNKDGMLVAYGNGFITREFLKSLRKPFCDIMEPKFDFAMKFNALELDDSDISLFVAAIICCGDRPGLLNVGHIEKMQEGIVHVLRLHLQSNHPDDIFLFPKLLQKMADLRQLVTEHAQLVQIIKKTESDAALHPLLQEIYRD

[4] = target: T2, PPARγ (Homo sapiens, UniProt P37231); test: PPAR analysis, PPARγ (Fluormone Pan-PPAR Green competition, competitive activation rate); format: binding; conditions: final sample concentration 100 μM; compared with positive control rosiglitazone; Figure 4
T2 sequence (P37231 238-503 limits assumed): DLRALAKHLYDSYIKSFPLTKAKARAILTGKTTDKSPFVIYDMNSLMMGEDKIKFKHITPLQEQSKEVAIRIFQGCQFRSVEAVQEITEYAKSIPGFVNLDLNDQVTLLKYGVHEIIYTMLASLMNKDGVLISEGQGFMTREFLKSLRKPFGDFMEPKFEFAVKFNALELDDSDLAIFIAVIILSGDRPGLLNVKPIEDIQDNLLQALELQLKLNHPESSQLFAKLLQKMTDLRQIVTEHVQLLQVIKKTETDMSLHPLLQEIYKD

[5] = tested on: PPARα and PPARγ (PPARα 및 PPARγ); test: PPAR analysis, PPARα and PPARγ taken together; format: binding; conditions: final sample concentration 100 μM

Compound: NC(=O)N/N=C/c1ccc(O)cc1 [화합물 1, (E)-2-(4-Hydroxybenzylidene)hydrazinecarboxamide]
- tyrosinase inhibitory activity [1]: 양성대조군인 코지산(Kojic Acid)과 유사한 티로시네이즈 억제 활성

Compound: NC(=O)N/N=C/c1ccc(O)c(O)c1 [화합물 2, (E)-2-(3,4-Dihydroxybenzylidene)hydrazinecarboxamide]
- ROS scavenging effect [2]: 양성대조군인 트롤록스(Trolox)만큼 소거하는 효과가 큰

Compound: NC(=O)N/N=C/c1ccccc1O [화합물 10, (E)-2-(2-Hydroxybenzylidene)hydrazinecarboxamide]
- PPARα activation (competitive activation rate), in words [3]: 양성대조군인 페노피브레이트보다 매우 뛰어난 PPARα 활성화제

Compound: CC(=O)N/C(=C\c1ccc(O)c(O)c1)C(=O)O [화합물 14, (Z)-2-Acetamido-3-(3,4-dihydroxyphenyl)acrylic acid]
- ROS scavenging effect [2]: 양성대조군인 트롤록스(Trolox)만큼 소거하는 효과가 큰

Compound: CC(=O)N/C(=C\c1ccc(O)cc1O)C(=O)O [화합물 15, (Z)-2-Acetamido-3-(2,4-dihydroxyphenyl)acrylic acid]
- PPARγ activation (competitive activation rate), in words [4]: 양성대조군인 로지글리타존보다 뛰어난 PPARγ 활성화제
- simultaneous activation of PPARα and PPARγ [5]: PPARα 및 PPARγ를 동시에 활성화할 수 있는 활성화제
- PPARα activation (competitive activation rate), in words [3]: 양성대조군인 페노피브레이트보다 매우 뛰어난 PPARα 활성화제

Compound: COc1cc(/C=C(\NC(C)=O)C(=O)O)ccc1O [화합물 16, (Z)-2-Acetamido-3-(4-hydroxy-3-methoxyphenyl)acrylic acid]
- ROS scavenging effect [2]: 양성대조군인 트롤록스(Trolox)만큼 소거하는 효과가 큰

Compound: CCOc1cc(/C=C(\NC(C)=O)C(=O)O)ccc1O [화합물 17, (Z)-2-Acetamido-3-(3-ethoxy-4-hydroxyphenyl)acrylic acid]
- ROS scavenging effect [2]: 양성대조군인 트롤록스(Trolox)만큼 소거하는 효과가 큰

Compound: CC(=O)N/C(=C\c1ccccc1O)C(=O)O [화합물 23, (Z)-2-Acetamido-3-(2-hydroxyphenyl)acrylic acid]
- PPARγ activation (competitive activation rate), in words [4]: 양성대조군인 로지글리타존보다 뛰어난 PPARγ 활성화제
- simultaneous activation of PPARα and PPARγ [5]: PPARα 및 PPARγ를 동시에 활성화할 수 있는 활성화제
- PPARα activation (competitive activation rate), in words [3]: 양성대조군인 페노피브레이트보다 매우 뛰어난 PPARα 활성화제

Compound: COc1cc(/C=C(\NC(C)=O)C(=O)O)cc(OC)c1O [화합물 25, (Z)-2-Acetamido-3-(4-hydroxy-3,5-dimethoxyphenyl)acrylic acid]
- ROS scavenging effect [2]: 양성대조군인 트롤록스(Trolox)만큼 소거하는 효과가 큰
